# ChEMBL document CHEMBL4808172, “Structure-Activity Relationship of Heterocyclic P2Y14 Receptor Antagonists: Removal of the Zwitterionic Character with Piperidine Bioisosteres” (J Med Chem, 2021)
# Where “and” joins values, the source holds several entries; their conditions need not be identical. Identical values can stand only once. Calls of active or inactive are those of the source. No cut-off for these calls is given here.
# How the values were obtained:
# Mus musculus [1] = assay: Antiinflammatory activity in mouse model of ovalbumin/Aspergillus-induced allergic asthma assessed as reduction in eosinophil counts in BALF at 20 umol/kg, ip administered 30 mins prior to allergen challenge and measured after 2 days post challenge; assay type: functional, organism-based; details: dose 20.0 µmol/kg, time 2.0 day
# [2] = target: Voltage-gated inwardly rectifying potassium channel KCNH2 (Homo sapiens, UniProt Q12809)
# [3] = Bioavailability in Wistar rat at 0.5 mg/kg, iv measured upto 24 hrs by HPLC-MS/MS method; assay type: ADME, organism-based; details: in vivo
# [4] = Aqueous solubility of compound at pH 7.4; assay type: physicochemical; details: buffer
# [5] = target: Sigma non-opioid intracellular receptor 1 (Homo sapiens, UniProt Q99720); assay: Binding affinity to sigma 1 receptor (unknown origin)
# [6] = target: Sigma intracellular receptor 2 (Homo sapiens, UniProt Q5BJF2); assay: Binding affinity to sigma 2 receptor (unknown origin)
# Translocator protein = Translocator protein (Homo sapiens, UniProt P30536); assay: Binding affinity to TSPO (unknown origin)
# [7] = Stability of compound in stimulated intestinal fluid assessed as half life; assay type: ADME; details: simulated gi fluid
# [8] = Stability of compound in stimulated gastric fluid assessed as half life; assay type: ADME; details: simulated gi fluid
# [9] = Stability in rat plasma assessed as half life; assay type: ADME, cell-free
# [10] = Stability in mouse plasma assessed as half life; assay type: ADME, cell-free
# [11] = Microsomal stability in human liver microsomes assessed as half life; assay type: ADME, Microsome
# [12] = Microsomal stability in rat liver microsomes assessed as half life; assay type: ADME, Microsome
# [13] = Microsomal stability in mouse liver microsomes assessed as half life; assay type: ADME, Microsome
# HepG2 = assay: Cytotoxicity against human HepG2 cells; assay type: cell-based
# [14] = AUC (0 to infinity) in Wistar rat at 1 mg/kg, ip measured upto 24 hrs by HPLC-MS/MS method; assay type: ADME, organism-based; parameters: route intraperitoneal, dose 1 mg/kg, time <=24; details: in vivo
# [15] = Elimination rate constant in Wistar rat at 0.5 mg/kg, iv measured upto 24 hrs by HPLC-MS/MS method; assay type: ADME, organism-based; details: in vivo
# [16] = Elimination rate constant in Wistar rat at 1 mg/kg, ip measured upto 24 hrs by HPLC-MS/MS method; assay type: ADME, organism-based; details: in vivo
# [17] = Elimination rate constant in Wistar rat at 3 mg/kg, ip measured upto 24 hrs by HPLC-MS/MS method; assay type: ADME, organism-based; details: in vivo
# [18] = Elimination rate constant in Wistar rat at 10 mg/kg, ip measured upto 24 hrs by HPLC-MS/MS method; assay type: ADME, organism-based; details: in vivo
# [19] = Bioavailability in Wistar rat at 1 mg/kg, ip measured upto 24 hrs by HPLC-MS/MS method; assay type: ADME, organism-based; details: in vivo
# [20] = Bioavailability in Wistar rat at 3 mg/kg, ip measured upto 24 hrs by HPLC-MS/MS method; assay type: ADME, organism-based; details: in vivo
# [21] = Bioavailability in Wistar rat at 10 mg/kg, ip measured upto 24 hrs by HPLC-MS/MS method; assay type: ADME, organism-based; details: in vivo
# [22] = Clearance in Wistar rat at 1 mg/kg, ip measured upto 24 hrs by HPLC-MS/MS method; assay type: ADME, organism-based; details: in vivo
# [23] = Clearance in Wistar rat at 3 mg/kg, ip measured upto 24 hrs by HPLC-MS/MS method; assay type: ADME, organism-based; details: in vivo
# [24] = Clearance in Wistar rat at 10 mg/kg, ip measured upto 24 hrs by HPLC-MS/MS method; assay type: ADME, organism-based; details: in vivo
# Mus musculus [25] = assay: Reversal of CCI-induced mechano-allodynia in mouse model of neuropathic pain at 10 umol/kg, ip after 2 hrs; assay type: functional, organism-based; details: dose 10.0 µmol/kg
# Mus musculus [26] = assay: Reversal of CCI-induced mechano-allodynia in mouse model of neuropathic pain at 10 umol/kg, ip measured after 3 to 5 hrs; assay type: functional, organism-based; details: dose 10.0 µmol/kg, time 3-5 hrs
# [27] = Toxicity in mouse at 10 umol/kg, ip; details: in vivo, dose 10 µmol/kg
# P2Y purinoceptor 14 = target: T1, P2Y purinoceptor 14 (Homo sapiens, UniProt Q15391); assay: cell-based
# T1 sequence (Q15391 whole entry): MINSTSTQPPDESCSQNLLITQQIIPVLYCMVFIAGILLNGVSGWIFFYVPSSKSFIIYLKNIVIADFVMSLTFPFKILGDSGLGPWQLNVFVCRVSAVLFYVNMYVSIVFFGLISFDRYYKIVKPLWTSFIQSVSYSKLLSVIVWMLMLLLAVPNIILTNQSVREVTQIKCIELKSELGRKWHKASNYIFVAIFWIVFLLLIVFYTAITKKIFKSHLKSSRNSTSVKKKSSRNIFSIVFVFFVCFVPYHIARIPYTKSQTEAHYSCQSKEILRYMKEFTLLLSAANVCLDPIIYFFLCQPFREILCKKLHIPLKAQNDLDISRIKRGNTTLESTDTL
# liver carboxylesterase [28] = target: T2, liver carboxylesterase (Sus scrofa, UniProt Q29550); assay: Drug metabolism in pH 7.5 HEPES buffer assessed as porcine liver esterase-mediated compound hydrolysis by measuring half life measured up to 72 hrs by HPLC analysis; assay type: ADME, tissue-based; details: pig
# T2 sequence (Q29550 whole entry): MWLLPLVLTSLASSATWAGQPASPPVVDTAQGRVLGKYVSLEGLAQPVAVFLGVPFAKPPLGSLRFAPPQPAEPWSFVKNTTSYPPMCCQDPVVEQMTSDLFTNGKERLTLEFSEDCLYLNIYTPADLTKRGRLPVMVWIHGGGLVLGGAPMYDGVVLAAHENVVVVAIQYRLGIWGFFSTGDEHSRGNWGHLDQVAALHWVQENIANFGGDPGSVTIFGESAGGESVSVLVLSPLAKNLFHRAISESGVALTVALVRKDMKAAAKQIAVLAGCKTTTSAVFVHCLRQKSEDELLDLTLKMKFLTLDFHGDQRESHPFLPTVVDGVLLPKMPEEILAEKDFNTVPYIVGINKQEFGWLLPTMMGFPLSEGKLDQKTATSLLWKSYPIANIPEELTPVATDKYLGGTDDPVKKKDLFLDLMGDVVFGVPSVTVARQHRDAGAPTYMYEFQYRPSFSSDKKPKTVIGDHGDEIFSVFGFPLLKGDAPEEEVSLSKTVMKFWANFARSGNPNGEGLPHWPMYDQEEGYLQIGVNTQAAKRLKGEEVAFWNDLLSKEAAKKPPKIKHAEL
# liver carboxylesterase [29] = target: T2, liver carboxylesterase; assay: Drug metabolism in pH 7.5 HEPES buffer assessed as porcine liver esterase-mediated compound hydrolysis measured up to 72 hrs by HPLC analysis; assay type: ADME; details: pig, read-out: Drug degradation
# [30] = Stability of compound in aqueous medium after 24 hrs in absence of PLE by HPLC analysis; assay type: physicochemical; details: buffer
# Sequence of Sigma intracellular receptor 2 (Q5BJF2 whole entry): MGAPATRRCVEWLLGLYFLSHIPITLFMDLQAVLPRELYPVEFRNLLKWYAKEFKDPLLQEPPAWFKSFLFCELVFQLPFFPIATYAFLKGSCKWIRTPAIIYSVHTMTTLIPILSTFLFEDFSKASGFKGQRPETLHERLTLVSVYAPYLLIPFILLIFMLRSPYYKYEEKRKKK
# Sequence of Translocator protein (P30536 whole entry): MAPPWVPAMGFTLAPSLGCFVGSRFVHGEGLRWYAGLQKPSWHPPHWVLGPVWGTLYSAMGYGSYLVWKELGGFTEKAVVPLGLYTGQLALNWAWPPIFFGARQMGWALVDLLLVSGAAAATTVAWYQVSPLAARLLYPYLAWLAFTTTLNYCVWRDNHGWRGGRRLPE
# Sequence of Sigma non-opioid intracellular receptor 1 (Q99720 whole entry): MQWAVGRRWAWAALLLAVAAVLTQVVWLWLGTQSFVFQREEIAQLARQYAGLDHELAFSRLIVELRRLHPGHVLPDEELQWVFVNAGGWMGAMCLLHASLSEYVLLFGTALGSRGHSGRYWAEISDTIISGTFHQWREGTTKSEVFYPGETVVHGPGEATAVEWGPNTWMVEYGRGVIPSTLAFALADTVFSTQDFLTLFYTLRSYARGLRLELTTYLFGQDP
# Sequence of Voltage-gated inwardly rectifying potassium channel KCNH2 (Q12809 whole entry): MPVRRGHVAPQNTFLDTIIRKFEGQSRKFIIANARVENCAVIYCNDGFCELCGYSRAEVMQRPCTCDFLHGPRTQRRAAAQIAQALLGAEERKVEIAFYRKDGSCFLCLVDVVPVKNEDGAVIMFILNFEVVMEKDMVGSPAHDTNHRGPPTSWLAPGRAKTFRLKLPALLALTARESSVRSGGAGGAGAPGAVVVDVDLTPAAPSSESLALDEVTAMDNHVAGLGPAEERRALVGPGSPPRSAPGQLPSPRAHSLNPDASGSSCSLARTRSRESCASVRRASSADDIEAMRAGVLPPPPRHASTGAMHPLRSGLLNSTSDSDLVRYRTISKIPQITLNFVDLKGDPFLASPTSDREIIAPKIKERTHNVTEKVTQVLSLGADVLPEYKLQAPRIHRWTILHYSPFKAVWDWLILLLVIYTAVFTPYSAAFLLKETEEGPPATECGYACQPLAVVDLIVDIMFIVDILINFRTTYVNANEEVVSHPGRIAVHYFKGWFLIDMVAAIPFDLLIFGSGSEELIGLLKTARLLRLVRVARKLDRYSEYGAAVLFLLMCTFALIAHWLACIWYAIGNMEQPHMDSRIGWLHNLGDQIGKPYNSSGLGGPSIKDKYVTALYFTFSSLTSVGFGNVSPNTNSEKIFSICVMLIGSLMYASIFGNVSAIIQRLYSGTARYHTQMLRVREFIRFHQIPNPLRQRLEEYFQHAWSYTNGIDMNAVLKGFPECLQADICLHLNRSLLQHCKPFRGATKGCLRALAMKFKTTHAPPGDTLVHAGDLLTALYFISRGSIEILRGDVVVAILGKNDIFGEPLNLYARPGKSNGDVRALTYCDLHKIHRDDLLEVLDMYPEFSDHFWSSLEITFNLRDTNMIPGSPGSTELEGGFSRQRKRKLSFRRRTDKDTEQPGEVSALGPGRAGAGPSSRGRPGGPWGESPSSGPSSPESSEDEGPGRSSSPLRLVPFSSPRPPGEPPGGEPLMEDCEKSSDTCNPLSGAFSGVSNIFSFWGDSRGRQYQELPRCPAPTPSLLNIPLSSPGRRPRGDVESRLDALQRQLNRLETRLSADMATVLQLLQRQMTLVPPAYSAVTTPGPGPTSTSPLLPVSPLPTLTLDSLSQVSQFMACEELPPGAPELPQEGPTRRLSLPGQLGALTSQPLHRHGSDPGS
smiles,measurement,setting,value
O=C(O)c1cc(-c2ccc(C3CCNCC3)cc2)c2ccc(-c3ccc(C(F)(F)F)cc3)cc2c1 [PPTN],Activity,Mus musculus [1],Active
same,EC50,[2],> 30 µM
O=C(O)c1cc(-c2ccc(-c3cc(CO)on3)cc2)c2ccc(-c3ccc(C(F)(F)F)cc3)cc2c1,F,[3],100%
same,solubility,[4],2.43 ug ml-1 and 4.96 uM
same,Ki,[5],2.68 µM
same,Ki,[6],4.78 µM
same,Ki,Translocator protein,4.63 µM
same,t1/2,[7],> 4 h
same,t1/2,[8],2.68 h
same,t1/2,[9],> 4 h
same,t1/2,[10],> 4 h
same,t1/2,[11],> 4 h
same,t1/2,[12],0.795 h
same,t1/2,[13],> 4 h
same,IC50,HepG2,8.47 µM
same,AUC,[14],700 ng·h/mL
same,k el at 24 h,[15],0.000281 s⁻¹
same,k el at 24 h,[16],2.67e-05 s⁻¹
same,k el at 24 h,[17],4.11e-05 s⁻¹
same,k el at 24 h,[18],6.47e-05 s⁻¹
same,F,[19],139%
same,F,[20],147%
same,F,[21],105%
same,CL/F,[22],23.8 mL/min/kg
same,CL/F,[23],23.7 mL/min/kg
same,CL/F,[24],33.8 mL/min/kg
same,Activity,Mus musculus [25],inactive
same,Activity,Mus musculus [26],inactive
same,Activity,[27],Non-Toxic
CC(C)(C)OC(=O)NC1(c2ccc(-c3cc(C(=O)O)cc(-n4cc(-c5ccc(C(F)(F)F)cc5)nn4)c3)cc2)CCC1,IC50,P2Y purinoceptor 14,> 10 µM
NC(=O)Cc1ccc(-c2cc(C(=O)O)cc(-n3cc(-c4ccc(C(F)(F)F)cc4)nn3)c2)cc1,Ki,[6],0.931 µM
same,Ki,Translocator protein,2.81 µM
CC(=O)N1CCC(c2ccc(-c3cc(C(=O)OCC(=O)N(C)C)cc4cc(-c5ccc(C(F)(F)F)cc5)ccc34)cc2)CC1,Ki,[6],0.59 µM
same,half-life,liver carboxylesterase [28],> 72 h
same,metabolised at 72 h,liver carboxylesterase [29],27.2%
same,Stabilty,[30],Stable
same,Activity,Mus musculus [1],Active
O=C(O)c1cc(-c2ccc(Br)cc2)cc(-n2cc(-c3ccc(C(F)(F)F)cc3)nn2)c1,IC50,P2Y purinoceptor 14,> 10 µM
